{
  "source": "paper PMC10782483",
  "about": "“Development of the High-Affinity Carborane-Based Cannabinoid Receptor Type 2 PET Ligand [^18F]LUZ5-d8” (Journal of Medicinal Chemistry, 2023)",
  "key": {"[1]": {"conditions": "rat, in vivo; cited from earlier work"}, "human CB2R": {"molecular_target": "T1, human CB2R (Homo sapiens, UniProt P34972)", "T1 construct": "expressed in transfected cells; host or cells: CHO cells (membrane homogenates)", "T1 sequence (P34972 whole entry)": "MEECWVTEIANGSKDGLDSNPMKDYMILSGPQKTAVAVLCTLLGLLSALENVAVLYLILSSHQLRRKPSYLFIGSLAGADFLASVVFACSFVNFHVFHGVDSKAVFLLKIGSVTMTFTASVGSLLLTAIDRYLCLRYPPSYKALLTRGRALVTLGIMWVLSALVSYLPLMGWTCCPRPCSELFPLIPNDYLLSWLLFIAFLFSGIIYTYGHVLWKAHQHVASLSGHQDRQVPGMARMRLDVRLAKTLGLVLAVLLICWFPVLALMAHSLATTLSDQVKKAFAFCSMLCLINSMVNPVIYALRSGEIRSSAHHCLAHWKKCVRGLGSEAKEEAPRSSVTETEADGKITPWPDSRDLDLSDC", "test": "competitive binding affinity assay, membrane homogenates of hCB2R CHO cells, radioligand [3H]WIN55212-2", "conditions": "hCB2R CHO membranes", "method": "Target compounds 9–11, 15, LUZ5, and 17 were evaluated in a competitive binding affinity assay using hCB2R Chinese hamster ovary (CHO) cells and the agonistic high-affinity CB2R radioligand [^3H]WIN55212-2 (Figure S96).\n(§1) The in vitro binding affinity assays were performed with membrane homogenates from Chinese hamster ovary (CHO) cells stably transfected with the human CB2R according to a previously published protocol.[95] The screening for CB1R binding affinity determination was performed with membrane homogenates from CHO cells stably transfected with the human CB1R as described previously.[96]"}, "[2]": {"test": "chemical stability tests by 1H and 11B{1H} NMR spectroscopy in aqueous DMSO-d6", "assay_type": "physicochemical", "conditions": "for chemical stability in aqueous DMSO-d6 (NMR), in words / stability in aqeous DMSO-d6 (1H, 11B{1H}-NMR) / stability versus binding affinity assay time frame: aqueous DMSO-d6; for stability versus binding affinity assay time frame: assay time 90 min", "method": "A high chemical and metabolic stability of the compounds is required for biological evaluation and application in vivo. The method of choice for evaluating the chemical stability was ^1H and ^11B{^1H} NMR spectroscopy, with the latter being particularly suitable for recognizing deboronation. Since the in vitro binding assays are performed in aqueous media, the stability tests should be performed under similar conditions. However, due to the high hydrophobicity of the carborane moieties, target compounds 9–11 and 15–17 were not soluble in aqueous solution without the addition of dimethyl sulfoxide (DMSO). Since a maximum of 1% DMSO can be used in the in vitro binding assay, stability measurements were performed in aqueous DMSO-d6 to see especially if deboronation occurs in the presence of water. Approximately 10 mg of each compound (9–11 and 15–17) was dissolved in the deuterated NMR solvent and monitored via NMR spectroscopy in time intervals of a few minutes (after the addition of the solvent to the respective solid compound) to at least 23 days for the o- (9 and 15) and m-carborane derivatives (10 and LUZ5) and beyond one year for the p-carborane analogues (11 and 17) (Figures S68–S79).\nStability tests were performed with ^1H and ^11B{^1H} NMR spectroscopy. Approximately 10 mg of each compound was dissolved in aqueous DMSO-d6 and measured directly thereafter and at increasing time intervals from a few minutes to a couple of days or beyond a year.\nThe stability of LUZ5 was additionally investigated under the conditions described above, but in the presence of larger amounts of H2O or D2O. For this, LUZ5 was dissolved in DMSO-d6 (0.5 mL) and either H2O (0.1 mL) or D2O (0.1 mL) was added."}, "[3]": {"conditions": "cited from earlier work"}, "[4]": {"test_system": "mouse liver microsomes (MLMs)", "test": "in vitro metabolism with mouse liver microsomes and NADPH, HPLC-UV-MS", "assay_type": "in vitro ADME", "conditions": "NADPH, similar conditions", "experimental": "Each of the compounds was incubated with mouse liver microsomes (MLMs) in phosphate-buffered saline (PBS) in the presence of nicotinamide adenine dinucleotide phosphate (NADPH) for 30 and 60 min at 37 °C, according to a literature protocol.[81],[82] After the addition of cold acetonitrile, the obtained supernatants were analyzed by HPLC-UV-MS (exemplified chromatogram and spectrum in Figures S91 and S92). […] In addition, negative control samples without NADPH or without NADPH and MLM were prepared and analyzed for each target compound.\nFor in vitro evaluation of metabolites, the following instruments were used: BioShake iQ (QUANTIFOIL Instruments, Jena, Germany), Centrifuge 5424 (Eppendorf, Hamburg, Germany), UltiMate 3000 UHPLC System (Thermo Scientific, Germering, Germany) including a DAD detector (DAD-3000RS) coupled to an MSQ Plus single quadrupole mass spectrometer (Thermo Scientific, Austin, TX). […] In brief, each of the test compounds (dissolved in DMSO, final concentration of 10 μM, final DMSO percentage of 1%) and MLMs (final protein concentration of 1 mg/mL) in PBS (pH 7.4) were preincubated in PBS (pH 7.4) for 5 min at 37 °C. Similarly preincubated NADPH (final concentration of 2 mM) was added to start the incubation. […] The supernatants were stored at 4 °C until they were measured by HPLC-UV-MS. […]"}, "CB2R": {"molecular_target": "CB2R", "conditions": "reference compound; read-out: KiCB2R; cited from earlier work"}, "human CB1R": {"molecular_target": "T2, human CB1R (Homo sapiens, UniProt P21554)", "T2 construct": "expressed in transfected cells; host or cells: CHO cells (membrane homogenates)", "T2 sequence (P21554 whole entry)": "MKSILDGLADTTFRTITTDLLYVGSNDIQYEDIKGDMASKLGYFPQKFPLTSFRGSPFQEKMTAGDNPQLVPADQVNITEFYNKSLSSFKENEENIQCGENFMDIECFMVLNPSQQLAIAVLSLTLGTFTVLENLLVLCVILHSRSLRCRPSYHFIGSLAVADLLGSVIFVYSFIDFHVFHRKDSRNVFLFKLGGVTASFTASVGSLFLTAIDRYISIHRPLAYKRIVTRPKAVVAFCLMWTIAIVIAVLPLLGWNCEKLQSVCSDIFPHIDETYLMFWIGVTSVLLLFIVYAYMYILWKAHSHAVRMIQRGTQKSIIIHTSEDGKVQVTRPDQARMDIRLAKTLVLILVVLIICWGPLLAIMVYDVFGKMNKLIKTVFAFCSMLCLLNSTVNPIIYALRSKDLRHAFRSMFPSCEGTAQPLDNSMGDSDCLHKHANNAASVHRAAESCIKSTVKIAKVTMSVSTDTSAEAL", "test": "CB1R binding affinity screening, membrane homogenates of CHO cells with human CB1R, radioligand [3H]SR141716A", "conditions": "human CB1R CHO membranes", "method": "as §1"}, "[5]": {"conditions": "individual values behind the mean, read-out: KiCB2R individual values"}},
  "note": "Several values for one entry are separate records, joined by “and”; a condition that tells them apart may be missing. Identical values can stand only once. Entries after “also recorded” stand apart in the source; their conditions may differ. Like-named read-outs stand apart in the source and are kept apart here.",
  "data": [
    {"compound": "Cc1s/c(=N\\C(=O)C2C(C)(C)C2(C)C)n(CCOCC[18F])c1C", "note": "[[^18F]4]", "values": [
      {"measurement": "intact radiotracer in plasma", "setting": "[1]", "value": 25, "unit": "%"}
    ]},
    {"compound": "1-(4-Fluorobutyl)-2-oxo-N-(1,2-dicarba-closo-dodecaboranyl)-1,2-dihydro-1,8-naphthyridine-3-carboxamide [Compound 9]", "values": [
      {"measurement": "Ki", "setting": "human CB2R; mean, read-out: KiCB2R mean", "value": 40.8, "unit": "nM"},
      {"measurement": "chemical stability in aqueous DMSO-d6 (NMR), in words", "setting": "[2]", "value": "additional signals were visible already after 2 h"},
      {"measurement": "stability in aqeous DMSO-d6 (1H, 11B{1H}-NMR)", "setting": "[2]", "value": "< 0.083", "unit": "days"},
      {"measurement": "stability versus binding affinity assay time frame", "setting": "[2]", "value": "too low"}
    ]},
    {"compound": "(Z)-N-[3-(4-Fluorobutyl)-4,5-dimethylthiazole-2(3H)-ylidene]-(1,2-dicarba-closo-dodecaboranyl)-carboxamide [Compound 15]", "values": [
      {"measurement": "Ki", "setting": "human CB2R; [5]", "value": "3.28 nM and 3.26 nM"},
      {"measurement": "Ki", "setting": "human CB2R; mean, read-out: KiCB2R mean", "value": 3.3, "unit": "nM"},
      {"measurement": "chemical stability in aqueous DMSO-d6 (NMR), in words", "setting": "[2]", "value": "good chemical stability"},
      {"measurement": "stability in aqeous DMSO-d6 (1H, 11B{1H}-NMR)", "setting": "[2]", "value": "< 3", "unit": "days"},
      {"measurement": "stability versus binding affinity assay time frame", "setting": "[2]", "value": "stability beyond the binding affinity assay time frame"}
    ]},
    {"compound": "1-(4-Fluorobutyl)-2-oxo-N-(1,7-dicarba-closo-dodecaboranyl)-1,2-dihydro-1,8-naphthyridine-3-carboxamide [Compound 10]", "values": [
      {"measurement": "Ki", "setting": "human CB2R; [5]", "value": "43.8 nM and 26.9 nM"},
      {"measurement": "Ki", "setting": "human CB2R; mean, read-out: KiCB2R mean", "value": 35.4, "unit": "nM"},
      {"measurement": "stability in aqeous DMSO-d6 (1H, 11B{1H}-NMR)", "setting": "[2]", "value": "< 8", "unit": "days"},
      {"measurement": "stability versus binding affinity assay time frame", "setting": "[2]", "value": "stability beyond the binding affinity assay time frame"}
    ]},
    {"compound": "(Z)-N-[3-(4-Fluorobutyl)-4,5-dimethylthiazole-2(3H)-ylidene]-(1,12-dicarba-closo-dodecaboranyl)-carboxamide [Compound 17]", "values": [
      {"measurement": "Ki", "setting": "human CB2R; [5]", "value": "1.36 nM and 1.17 nM"},
      {"measurement": "Ki", "setting": "human CB2R; mean, read-out: KiCB2R mean", "value": 1.3, "unit": "nM"},
      {"measurement": "chemical stability in aqueous DMSO-d6 (NMR), in words", "setting": "[2]", "value": "stable for more than one year; also recorded: good chemical stability"},
      {"measurement": "stability in aqeous DMSO-d6 (1H, 11B{1H}-NMR)", "setting": "[2]", "value": "? 491 d"},
      {"measurement": "stability versus binding affinity assay time frame", "setting": "[2]", "value": "stability beyond the binding affinity assay time frame"}
    ]},
    {"compound": "Cc1s/c(=N\\C(=O)C2C(C)(C)C2(C)C)n(CCCC[18F])c1C", "note": "[[^18F]3]", "values": [
      {"measurement": "intact radioligand in brain", "setting": "[3]; brain samples", "value": 36, "unit": "%"},
      {"measurement": "intact radiotracer in plasma", "setting": "[3]; mouse, in vivo", "value": 7, "unit": "%"}
    ]},
    {"compound": "1-(4-Fluorobutyl)-2-oxo-N-(1,7-dicarba-closo-dodecaboranyl)-1,2-dihydro-1,8-naphthyridine-3-carboxamide [Compound 11]", "values": [
      {"measurement": "Ki", "setting": "human CB2R; [5]", "value": "2.77 nM and 5.01 nM"},
      {"measurement": "Ki", "setting": "human CB2R; mean, read-out: KiCB2R mean", "value": 3.9, "unit": "nM"},
      {"measurement": "chemical stability in aqueous DMSO-d6 (NMR), in words", "setting": "[2]", "value": "stable for more than one year; also recorded: good chemical stability"},
      {"measurement": "stability in aqeous DMSO-d6 (1H, 11B{1H}-NMR)", "setting": "[2]", "value": "? 491 d"},
      {"measurement": "stability versus binding affinity assay time frame", "setting": "[2]", "value": "stability beyond the binding affinity assay time frame"}
    ]},
    {"compound": "C[C@]12CC[C@H]3[C@@H](CCC4=CC(=O)CC[C@@]43C)[C@@H]1CC[C@@H]2O", "note": "[testosterone]", "values": [
      {"measurement": "conversion of positive control", "setting": "[4]", "value": "complete conversion"}
    ]},
    {"compound": "O=C(NC12CC3CC(CC(C3)C1)C2)c1cc2cccnc2n(CCCCF)c1=O", "note": "[LU13]", "values": [
      {"measurement": "Ki", "setting": "CB2R", "value": 0.6, "unit": "nM"}
    ]},
    {"compound": "(Z)-N-[3-(4-Fluorobutyl)-4,5-dimethylthiazole-2(3H)-ylidene]-(1,7-dicarba-closo-dodecaboranyl)-carboxamide [LUZ5]", "values": [
      {"measurement": "Ki", "setting": "human CB1R", "value": "> 10000", "unit": "nM"},
      {"measurement": "Ki", "setting": "human CB2R; mean, read-out: KiCB2R mean", "value": 0.8, "unit": "nM"},
      {"measurement": "stable in DMSO-d6 with increased amounts of D2O", "setting": "[2]; D2O in DMSO-d6 1:5 (v/v), 11B{1H} NMR", "value": "at least 8 days"},
      {"measurement": "stable in DMSO-d6 with increased amounts of H2O", "setting": "[2]; H2O in DMSO-d6 1:5 (v/v), 11B{1H} NMR", "value": "at least 19 days"},
      {"measurement": "stability in aqeous DMSO-d6 (1H, 11B{1H}-NMR)", "setting": "[2]", "value": "? 23 d"},
      {"measurement": "stability versus binding affinity assay time frame", "setting": "[2]", "value": "stability beyond the binding affinity assay time frame"}
    ]}
  ]
}
